Test [1] has as its system RS4; 11 leukaemia cell line. Briefly: In vitro cytotoxicity, Microculture Tetrazolium Assay (MTT). It counts as cell-based. As to conditions: 11 cells exposed for 48 hours. As for the experimental part: The cytotoxicity studies were carried out on the RS4; 11 leukaemia cell line and on H146 small Cell Lung Carcinoma cell line. The cells are distributed onto microplates and exposed to the test compounds for 48 hours. The cell viability is then quantified by a colorimetric assay, the Microculture Tetrazolium Assay (Cancer Res., 1987, 47, 939-942).

In the next test the target is Bcl-2 protein (histag-Bcl-2, UniProtKB P10415) (Homo sapiens (Human), UniProt P10415). Briefly: Inhibition of Bcl-2 by the fluorescence polarisation technique. As to conditions: fluorescence polarisation test; incubation for 2 hours; read-out: IC50 (nM) Bcl-2 FP. In kind it is binding. The source says:
For partial inhibitors, the percentage fluorescence polarisation inhibition for a given concentration of the test compound is indicated.

Where a name gives a salt, the structure may show the parent alone.

Chain of Bcl-2 protein (P10415 whole entry): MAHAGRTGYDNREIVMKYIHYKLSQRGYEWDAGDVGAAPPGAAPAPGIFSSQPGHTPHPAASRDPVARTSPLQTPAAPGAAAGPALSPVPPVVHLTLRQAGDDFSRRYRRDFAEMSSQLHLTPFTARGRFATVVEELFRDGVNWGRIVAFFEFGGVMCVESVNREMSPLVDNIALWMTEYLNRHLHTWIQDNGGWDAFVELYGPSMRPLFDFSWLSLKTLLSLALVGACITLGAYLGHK

What is called IC50 is the concentration at which inhibition is half-maximal. Regarding `Cc1c(C(=O)N(C)c2ccc(O)cc2)cc(-c2cc3c(cc2C(=O)N2Cc4ccccc4C[C@H]2C)CN(C(=O)OC2CCC(N(C)C)CC2)CC3)n1C` (stereo partly drawn) [Example 802, (1r,4r)-4-(Dimethylamino)cyclohexyl 6-{4-[(4-hydroxyphenyl)(methyl)carbamoyl]-1,5-dimethyl-1H-pyrrol-2-yl}-7-[(3R)-3-methyl-1,2,3,4-tetrahydroisoquinoline-2-carbonyl]-1,2,3,4-tetrahydroisoquinoline-2-carboxylate], the 50% inhibitory concentration (IC50) in test [1] was found to be 99 nM; at Bcl-2 protein, 4 nM.

Take `CC(=O)N(C)c1ccc(OC(=O)N2CCc3cc(-c4cc(C(=O)N(C)c5ccc(O)cc5)c(C)n4C)c(C(=O)N4Cc5ccccc5C[C@H]4CN4CCOCC4)cc3C2)cc1` [Example 803, 4-(N-Methylacetamido)phenyl 6-{4-[(4-hydroxyphenyl)(methyl)carbamoyl]-1,5-dimethyl-1H-pyrrol-2-yl}-7-[(3S)-3-(morpholin-4-ylmethyl)-1,2,3,4-tetrahydroisoquinoline-2-carbonyl]-1,2,3,4-tetrahydroisoquinoline-2-carboxylate]: the IC50 in test [1] (Homo sapiens) came to 37 nM; at Bcl-2 protein, 4.6 nM.

In the case of `Cc1c(C(=O)N(C)c2ccc(O)cc2)cc(-c2cc3c(cc2C(=O)N2Cc4ccccc4C[C@H]2C)CN(C(=O)Oc2ccc(CCC(=O)N(C)C)cc2)CC3)n1C` [Example 804, 4-[2-(Dimethylcarbamoyl)ethyl]phenyl 6-{4-[(4-hydroxyphenyl)(methyl)carbamoyl]-1,5-dimethyl-1H-pyrrol-2-yl}-7-[(3R)-3-methyl-1,2,3,4-tetrahydroisoquinoline-2-carbonyl]-1,2,3,4-tetrahydroisoquinoline-2-carboxylate], the IC50 amounted to 2.2 nM in test [1] (Homo sapiens) and 3.6 nM on Bcl-2 protein.

On to `Cc1ccc(OC(=O)N2CCc3cc(-c4cc(C(=O)N(c5ccc(O)cc5)c5cc(C#N)n(C)c5C)c(C)n4C)c(C(=O)N4Cc5ccccc5C[C@H]4CN4CCOCC4)cc3C2)cc1` [Example 805, Tolyl 6-[4-[(5-cyano-1,2-dimethyl-1H-pyrrol-3-yl)-(4-hydroxyphenyl)carbamoyl]-1,5-dimethyl-1H-pyrrol-2-yl]-7-[(3S)-3-(morpholinomethyl)-3,4-dihydro-1H-isoquinoline-2-carbonyl]-3,4-dihydro-1H-isoquinoline-2-carboxylate hydrochloride], for which the IC50 in test [1] turned out to be 0.12 nM; on Bcl-2 protein, 3.1 nM.

For the molecule `Cc1c(C(=O)N(C)c2ccc(O)cc2)cc(-c2cc3c(cc2C(=O)N2Cc4ccccc4C[C@H]2C)CN(C(=O)[C@@H](O)c2ccccc2)C3)n1C` [Example 806, N-(4-Hydroxyphenyl)-5-(2-[(2S)-2-hydroxy-2-phenylacetyl]-6-{[(3R)-3-methyl-3,4-dihydroisoquinolin-2(1H)-yl]carbonyl}-2,3-dihydro-1H-isoindol-5-yl)-N,1,2-trimethyl-1H-pyrrole-3-carboxamide], the figures for the IC50 (in test [1] (Homo sapiens); on Bcl-2 protein) were greater than 150 nM and 33 nM, respectively.

`Cc1c(C(=O)N(C)c2ccc(O)cc2)cc(-c2cc3c(cc2C(=O)N2Cc4ccccc4C[C@H]2CCN2CCOCC2)CN(C(=O)OC2CCCCC2)CC3)n1C` [Example 807, Cyclohexyl 6-{4-[(4-hydroxyphenyl)(methyl)carbamoyl]-1,5-dimethyl-1H-pyrrol-2-yl}-7-[(3S)-3-[2-(morpholin-4-yl)ethyl]-1,2,3,4-tetrahydroisoquinoline-2-carbonyl]-1,2,3,4-tetrahydroisoquinoline-2-carboxylate]: the values for the half-maximal inhibitory concentration (IC50) (in test [1] (Homo sapiens); at Bcl-2 protein) were 26 nM and 3.9 nM, respectively.

In the case of `Cc1c(C(=O)N(C)c2ccc(O)cc2)cc(-c2cc3c(cc2C(=O)N2Cc4ccccc4C[C@H]2CCCN2CCOCC2)CN(C(=O)Oc2ccccc2)CC3)n1C` [Example 808, Phenyl 6-{4-[(4-hydroxyphenyl)(methyl)carbamoyl]-1,5-dimethyl-1H-pyrrol-2-yl}-7-[(3R)-3-[3-(morpholin-4-yl)propyl]-1,2,3,4-tetrahydroisoquinoline-2-carbonyl]-1,2,3,4-tetrahydroisoquinoline-2-carboxylate], the IC50 in test [1] (Homo sapiens) was 1.6 nM; on Bcl-2 protein, 2.7 nM.

`Cc1c(C(=O)N(C)c2ccc(O)cc2)cc(-c2cc3c(cc2C(=O)N2Cc4ccccc4C[C@H]2CCCN2CCOCC2)CN(C(=O)OC2CCCCC2)CC3)n1C` [Example 809, Cyclohexyl 6-{4-[(4-hydroxyphenyl)(methyl)carbamoyl]-1,5-dimethyl-1H-pyrrol-2-yl}-7-[(3R)-3-[3-(morpholin-4-yl)propyl]-1,2,3,4-tetrahydroisoquinoline-2-carbonyl]-1,2,3,4-tetrahydroisoquinoline-2-carboxylate]: the IC50 in test [1] (Homo sapiens) is 9.8 nM; at Bcl-2 protein, 3.1 nM.

As for `Cc1c(C(=O)N(C)c2ccccc2)cc(-c2cc3c(cc2C(=O)N2Cc4ccccc4C[C@H]2CCCN2CCOCC2)CN(C(=O)OC2CCCCC2)CC3)n1C` [Example 811, Cyclohexyl 6-{1,5-dimethyl-4-[methyl(phenyl)carbamoyl]-1H-pyrrol-2-yl}-7-[(3R)-3-[3-(morpholin-4-yl)propyl]-1,2,3,4-tetrahydroisoquinoline-2-carbonyl]-1,2,3,4-tetrahydroisoquinoline-2-carboxylate], the IC50 in test [1] (Homo sapiens) turned out to be 94 nM; on Bcl-2 protein, 3.8 nM.
